{"source": "paper PMC3480357", "about": "“Fragment-Hopping-Based Discovery of a Novel Chemical Series of Proto-Oncogene PIM-1 Kinase Inhibitors” (PLoS ONE, 2012)", "key": {"JNK1 [1]": {"target": "T1, JNK1 (Homo sapiens, UniProt P45983)", "T1 sequence (P45983 whole entry, species assumed, the tested form may be a part)": "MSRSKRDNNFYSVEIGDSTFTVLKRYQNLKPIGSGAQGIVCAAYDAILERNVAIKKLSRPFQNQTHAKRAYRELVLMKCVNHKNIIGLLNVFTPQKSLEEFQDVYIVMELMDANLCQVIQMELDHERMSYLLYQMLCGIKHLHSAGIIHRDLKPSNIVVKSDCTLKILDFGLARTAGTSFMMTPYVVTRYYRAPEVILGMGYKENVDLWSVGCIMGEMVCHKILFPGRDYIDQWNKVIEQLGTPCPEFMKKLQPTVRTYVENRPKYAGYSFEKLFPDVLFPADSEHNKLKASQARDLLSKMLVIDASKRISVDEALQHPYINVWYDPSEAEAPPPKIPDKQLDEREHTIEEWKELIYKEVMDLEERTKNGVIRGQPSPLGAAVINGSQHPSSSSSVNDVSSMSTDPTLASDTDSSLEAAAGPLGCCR", "test": "ProQinase kinase panel, % inhibition at fixed concentration", "assay_type": "biochemical", "experimental": "(§1) Once compounds 7 and 8 were synthesized, a pairwise comparison was performed to strictly evaluate the real impact of this fragment-hopping where imidazopyridazine is replaced by triazolopyridine."}, "INS-R [2]": {"target": "T2, INS-R (Homo sapiens, UniProt P06213)", "T2 sequence (P06213 980-1382 limits assumed, species assumed)": "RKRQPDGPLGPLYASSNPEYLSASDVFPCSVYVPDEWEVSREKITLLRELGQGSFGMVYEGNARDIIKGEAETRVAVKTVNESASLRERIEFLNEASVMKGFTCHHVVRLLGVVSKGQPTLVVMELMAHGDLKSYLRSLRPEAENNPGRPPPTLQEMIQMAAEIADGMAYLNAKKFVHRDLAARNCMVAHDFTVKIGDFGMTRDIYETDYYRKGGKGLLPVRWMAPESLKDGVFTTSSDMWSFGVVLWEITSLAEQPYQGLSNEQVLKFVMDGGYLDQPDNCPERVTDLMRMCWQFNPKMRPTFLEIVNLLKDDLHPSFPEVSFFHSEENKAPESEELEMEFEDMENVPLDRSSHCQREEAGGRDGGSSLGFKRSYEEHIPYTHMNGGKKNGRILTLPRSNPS", "test": "ProQinase kinase panel, % inhibition at fixed concentration", "assay_type": "biochemical", "experimental": "as §1"}, "[3]": {"design": "method as in earlier work", "conditions": "SuperGen press release; cited from earlier work"}, "hERG": {"target": "hERG (Homo sapiens, UniProt Q12809)", "sequence (Q12809 whole entry)": "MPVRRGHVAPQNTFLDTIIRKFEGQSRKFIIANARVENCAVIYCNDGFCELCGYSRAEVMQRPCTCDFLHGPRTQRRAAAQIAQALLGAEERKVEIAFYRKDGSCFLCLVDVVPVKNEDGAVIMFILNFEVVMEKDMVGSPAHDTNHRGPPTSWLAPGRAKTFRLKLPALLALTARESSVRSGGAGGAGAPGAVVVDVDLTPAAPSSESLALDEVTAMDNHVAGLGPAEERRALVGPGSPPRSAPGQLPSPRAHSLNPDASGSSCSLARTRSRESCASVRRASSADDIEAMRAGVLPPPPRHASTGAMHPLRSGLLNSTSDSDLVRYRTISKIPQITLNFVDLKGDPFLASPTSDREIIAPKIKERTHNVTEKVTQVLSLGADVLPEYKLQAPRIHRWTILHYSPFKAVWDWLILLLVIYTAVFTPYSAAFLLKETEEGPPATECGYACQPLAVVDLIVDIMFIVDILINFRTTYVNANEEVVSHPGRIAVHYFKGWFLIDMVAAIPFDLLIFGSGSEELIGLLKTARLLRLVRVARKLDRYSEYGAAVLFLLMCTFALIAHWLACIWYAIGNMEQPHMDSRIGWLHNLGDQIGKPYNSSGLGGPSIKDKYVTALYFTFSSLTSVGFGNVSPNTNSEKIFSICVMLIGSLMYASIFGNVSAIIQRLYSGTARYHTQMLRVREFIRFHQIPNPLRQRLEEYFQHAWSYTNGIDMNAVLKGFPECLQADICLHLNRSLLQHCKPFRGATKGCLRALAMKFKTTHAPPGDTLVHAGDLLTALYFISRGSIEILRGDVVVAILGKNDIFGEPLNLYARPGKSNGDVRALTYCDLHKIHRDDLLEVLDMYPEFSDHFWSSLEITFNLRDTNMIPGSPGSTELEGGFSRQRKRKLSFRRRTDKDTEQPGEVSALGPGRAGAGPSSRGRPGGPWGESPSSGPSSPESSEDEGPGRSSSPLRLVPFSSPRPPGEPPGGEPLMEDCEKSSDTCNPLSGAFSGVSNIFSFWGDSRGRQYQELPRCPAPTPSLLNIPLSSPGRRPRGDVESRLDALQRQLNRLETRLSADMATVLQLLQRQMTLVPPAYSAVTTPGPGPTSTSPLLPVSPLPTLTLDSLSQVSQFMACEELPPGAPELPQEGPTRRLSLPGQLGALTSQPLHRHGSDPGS", "test": "hERG radioligand binding assay using [3H]-astemizole", "conditions": "duplicate"}, "CK1-α1": {"target": "CK1-α1 (Homo sapiens, UniProt P48729)", "sequence (P48729 whole entry)": "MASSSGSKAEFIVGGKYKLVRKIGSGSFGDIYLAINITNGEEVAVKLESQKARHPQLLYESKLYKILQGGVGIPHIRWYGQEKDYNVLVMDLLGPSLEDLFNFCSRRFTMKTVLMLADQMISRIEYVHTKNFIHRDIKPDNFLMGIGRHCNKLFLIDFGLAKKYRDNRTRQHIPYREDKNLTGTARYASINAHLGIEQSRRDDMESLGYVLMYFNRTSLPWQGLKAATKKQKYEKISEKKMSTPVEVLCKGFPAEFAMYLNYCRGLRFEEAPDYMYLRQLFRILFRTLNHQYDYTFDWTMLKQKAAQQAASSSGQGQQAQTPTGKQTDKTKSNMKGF", "design": "method as in PMID 21051136", "conditions": "10 µM; average of two data points; cited from earlier work"}, "FLT3": {"target": "T3, FLT3 (Homo sapiens, UniProt P36888)", "T3 construct": "purchased Invitrogen PV3182", "T3 sequence (P36888 564-993 limits assumed)": "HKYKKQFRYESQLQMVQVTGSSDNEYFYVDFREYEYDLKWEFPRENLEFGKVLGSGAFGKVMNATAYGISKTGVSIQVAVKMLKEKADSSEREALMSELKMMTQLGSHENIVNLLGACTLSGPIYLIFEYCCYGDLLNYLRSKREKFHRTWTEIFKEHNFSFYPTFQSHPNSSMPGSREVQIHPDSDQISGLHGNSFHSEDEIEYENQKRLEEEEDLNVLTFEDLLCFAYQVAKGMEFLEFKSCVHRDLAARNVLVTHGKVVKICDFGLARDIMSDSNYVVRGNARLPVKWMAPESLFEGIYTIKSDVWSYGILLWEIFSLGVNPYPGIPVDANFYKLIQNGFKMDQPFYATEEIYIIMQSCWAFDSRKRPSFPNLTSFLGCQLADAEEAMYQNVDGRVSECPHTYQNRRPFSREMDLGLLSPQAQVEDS", "design": "method as in PMID 21051136", "conditions": "10 µM; cited from earlier work"}, "EGF-R": {"target": "EGF-R (Homo sapiens, UniProt P00533)", "design": "method as in PMID 21051136", "conditions": "10 µM; average of two data points; cited from earlier work"}, "IGF1-R": {"target": "IGF1-R (Homo sapiens, UniProt P08069)", "design": "method as in PMID 21051136", "conditions": "10 µM; average of two data points; cited from earlier work"}, "FGF-R1": {"target": "FGF-R1 (Homo sapiens, UniProt P11362)", "design": "method as in PMID 21051136", "conditions": "10 µM; average of two data points; cited from earlier work"}, "PIM-3": {"target": "PIM-3 (Homo sapiens, UniProt Q86V86)", "design": "method as in PMID 21051136", "conditions": "cited from earlier work"}, "PIM-2": {"target": "PIM-2 (Homo sapiens, UniProt Q9P1W9)", "sequence (Q9P1W9 whole entry)": "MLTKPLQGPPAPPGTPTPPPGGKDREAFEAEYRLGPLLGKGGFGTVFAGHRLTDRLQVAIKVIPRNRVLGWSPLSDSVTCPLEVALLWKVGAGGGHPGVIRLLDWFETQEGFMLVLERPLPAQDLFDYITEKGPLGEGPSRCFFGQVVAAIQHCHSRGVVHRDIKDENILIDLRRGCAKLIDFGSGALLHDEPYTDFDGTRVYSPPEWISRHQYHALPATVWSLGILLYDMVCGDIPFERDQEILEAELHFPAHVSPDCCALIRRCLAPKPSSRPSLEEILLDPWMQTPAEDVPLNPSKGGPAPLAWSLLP", "design": "method as in PMID 21051136", "conditions": "cited from earlier work"}, "MET": {"target": "MET (Homo sapiens, UniProt P08581)", "sequence (P08581 25-1390)": "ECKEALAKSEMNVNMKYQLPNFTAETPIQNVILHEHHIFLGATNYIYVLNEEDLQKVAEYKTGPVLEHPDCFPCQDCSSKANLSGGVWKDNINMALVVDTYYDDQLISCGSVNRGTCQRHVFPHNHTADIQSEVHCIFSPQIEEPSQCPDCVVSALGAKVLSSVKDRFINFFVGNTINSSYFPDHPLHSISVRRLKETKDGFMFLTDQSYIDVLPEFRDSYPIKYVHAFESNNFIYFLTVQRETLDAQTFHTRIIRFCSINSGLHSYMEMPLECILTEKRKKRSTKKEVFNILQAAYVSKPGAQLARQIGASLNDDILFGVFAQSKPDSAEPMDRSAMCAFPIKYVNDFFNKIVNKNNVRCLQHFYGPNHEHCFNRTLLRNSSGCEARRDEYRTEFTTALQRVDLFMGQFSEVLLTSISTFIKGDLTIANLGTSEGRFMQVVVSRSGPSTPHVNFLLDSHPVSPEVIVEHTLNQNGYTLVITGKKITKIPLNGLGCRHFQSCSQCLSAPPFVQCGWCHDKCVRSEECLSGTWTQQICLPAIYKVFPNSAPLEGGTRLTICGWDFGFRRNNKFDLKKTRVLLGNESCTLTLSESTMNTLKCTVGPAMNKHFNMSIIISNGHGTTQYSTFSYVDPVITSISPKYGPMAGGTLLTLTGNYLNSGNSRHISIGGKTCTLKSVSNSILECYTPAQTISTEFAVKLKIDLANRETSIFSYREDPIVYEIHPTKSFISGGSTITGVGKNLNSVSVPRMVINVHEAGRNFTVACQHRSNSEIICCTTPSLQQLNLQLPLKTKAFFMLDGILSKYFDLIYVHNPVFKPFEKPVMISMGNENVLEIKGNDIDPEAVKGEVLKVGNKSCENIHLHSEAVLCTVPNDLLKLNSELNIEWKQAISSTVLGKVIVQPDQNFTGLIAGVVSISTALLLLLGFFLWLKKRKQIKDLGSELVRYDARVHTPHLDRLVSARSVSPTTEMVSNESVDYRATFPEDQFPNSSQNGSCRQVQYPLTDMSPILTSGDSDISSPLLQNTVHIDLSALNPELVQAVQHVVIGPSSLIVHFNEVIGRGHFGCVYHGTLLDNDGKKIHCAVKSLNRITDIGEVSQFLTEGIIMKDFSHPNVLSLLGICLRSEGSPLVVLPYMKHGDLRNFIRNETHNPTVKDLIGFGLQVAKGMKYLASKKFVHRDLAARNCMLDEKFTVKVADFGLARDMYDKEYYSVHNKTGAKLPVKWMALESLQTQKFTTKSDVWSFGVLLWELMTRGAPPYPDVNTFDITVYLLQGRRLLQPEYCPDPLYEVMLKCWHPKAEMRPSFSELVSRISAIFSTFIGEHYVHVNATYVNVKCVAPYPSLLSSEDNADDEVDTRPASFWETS", "design": "method as in PMID 21051136", "conditions": "10 µM; average of two data points; cited from earlier work"}, "JNK1 [4]": {"target": "T1, JNK1", "design": "method as in PMID 21051136", "conditions": "10 µM; average of two data points; cited from earlier work"}, "INS-R [5]": {"target": "T2, INS-R", "design": "method as in PMID 21051136", "conditions": "10 µM; average of two data points; cited from earlier work"}, "MST1": {"target": "T4, MST1 (Homo sapiens, UniProt Q13043)", "T4 sequence (Q13043 1-487)": "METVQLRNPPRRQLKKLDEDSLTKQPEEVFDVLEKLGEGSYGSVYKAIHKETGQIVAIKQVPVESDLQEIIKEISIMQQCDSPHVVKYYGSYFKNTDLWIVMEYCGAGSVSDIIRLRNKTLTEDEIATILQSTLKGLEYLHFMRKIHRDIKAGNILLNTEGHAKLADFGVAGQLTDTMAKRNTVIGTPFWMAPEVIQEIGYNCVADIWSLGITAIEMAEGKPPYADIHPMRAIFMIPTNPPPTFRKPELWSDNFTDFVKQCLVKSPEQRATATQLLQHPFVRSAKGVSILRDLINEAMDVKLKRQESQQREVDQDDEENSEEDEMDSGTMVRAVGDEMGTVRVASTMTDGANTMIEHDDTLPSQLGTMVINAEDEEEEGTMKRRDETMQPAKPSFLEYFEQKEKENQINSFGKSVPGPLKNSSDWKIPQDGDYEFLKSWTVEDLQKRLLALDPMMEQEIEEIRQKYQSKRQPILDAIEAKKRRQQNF", "design": "method as in PMID 21051136", "conditions": "10 µM; average of two data points; cited from earlier work"}, "ARK5": {"target": "T5, ARK5 (Homo sapiens, UniProt O60285)", "T5 sequence (O60285 1-661)": "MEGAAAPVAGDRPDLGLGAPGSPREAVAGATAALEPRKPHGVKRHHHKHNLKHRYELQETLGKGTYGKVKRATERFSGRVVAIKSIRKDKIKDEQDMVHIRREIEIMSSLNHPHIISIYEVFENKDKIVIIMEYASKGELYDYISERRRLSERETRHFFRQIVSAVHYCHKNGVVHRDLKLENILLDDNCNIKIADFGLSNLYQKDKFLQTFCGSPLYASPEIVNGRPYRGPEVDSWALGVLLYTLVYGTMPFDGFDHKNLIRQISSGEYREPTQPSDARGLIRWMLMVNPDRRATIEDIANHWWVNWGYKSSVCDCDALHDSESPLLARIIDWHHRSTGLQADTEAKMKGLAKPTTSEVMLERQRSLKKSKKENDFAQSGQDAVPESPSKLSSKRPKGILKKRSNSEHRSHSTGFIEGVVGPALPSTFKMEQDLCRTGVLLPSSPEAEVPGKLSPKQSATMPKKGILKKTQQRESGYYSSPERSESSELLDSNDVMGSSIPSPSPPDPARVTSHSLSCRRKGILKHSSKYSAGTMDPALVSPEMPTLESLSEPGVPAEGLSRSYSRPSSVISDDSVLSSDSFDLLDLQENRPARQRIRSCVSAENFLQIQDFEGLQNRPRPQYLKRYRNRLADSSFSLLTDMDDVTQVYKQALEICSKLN", "design": "method as in PMID 21051136", "conditions": "10 µM; average of two data points; cited from earlier work"}, "PAK1": {"target": "PAK1 (Homo sapiens, UniProt Q13153)", "sequence (Q13153 whole entry)": "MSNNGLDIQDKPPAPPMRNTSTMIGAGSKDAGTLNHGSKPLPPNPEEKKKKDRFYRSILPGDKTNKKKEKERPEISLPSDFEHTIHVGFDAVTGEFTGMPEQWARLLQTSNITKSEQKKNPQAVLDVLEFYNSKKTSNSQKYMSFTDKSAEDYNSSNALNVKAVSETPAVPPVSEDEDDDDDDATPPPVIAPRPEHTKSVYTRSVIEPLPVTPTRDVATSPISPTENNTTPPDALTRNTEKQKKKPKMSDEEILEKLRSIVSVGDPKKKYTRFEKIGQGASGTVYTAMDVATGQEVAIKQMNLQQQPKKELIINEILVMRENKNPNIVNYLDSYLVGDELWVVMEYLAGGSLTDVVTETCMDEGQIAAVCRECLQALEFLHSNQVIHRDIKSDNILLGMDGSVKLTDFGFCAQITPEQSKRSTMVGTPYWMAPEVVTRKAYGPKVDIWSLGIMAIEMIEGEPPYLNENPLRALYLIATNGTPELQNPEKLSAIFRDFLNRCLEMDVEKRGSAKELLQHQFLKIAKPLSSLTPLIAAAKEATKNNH", "design": "method as in PMID 21051136", "conditions": "10 µM; average of two data points; cited from earlier work"}, "B-RAF-V600E": {"target": "B-RAF-V600E (Homo sapiens, UniProt P15056, V600E)", "design": "method as in PMID 21051136", "conditions": "10 µM; average of two data points; cited from earlier work"}, "[6]": {"conditions": "compound 7 vs compound 1, 10 µM"}}, "data": [{"molecule": "Oc1ccc(-n2nnc3ccc(NCc4ccc(F)cc4)nc32)cc1", "note": "[Compound 7, 4-[5-(4-Fluoro-benzylamino)-[1], [2], [3]triazolo[4,5-b]pyridin-3-yl]-phenol]", "values": [{"measurement": "JNK1 improvement in percentage of inhibition", "setting": "JNK1 [1]; [6]", "result": "c (This designation indicates that the improvement in percentage of inhibition was equal or greater than 50%)"}, {"measurement": "inhibition at 10 µM", "setting": "JNK1 [1]; inhibitor at 10 µM, average of two data points, read-out: JNK1 percentage of inhibition", "result": 11, "unit": "%"}, {"measurement": "INS-R improvement in percentage of inhibition", "setting": "INS-R [2]; [6]", "result": "b (This designation indicates that the improvement in percentage of inhibition was equal or greater than 25%)"}, {"measurement": "inhibition at 10 µM", "setting": "INS-R [2]; inhibitor at 10 µM, average of two data points, read-out: INS-R percentage of inhibition", "result": 32, "unit": "%"}]}, {"molecule": "CN1CCC(CNc2ccc3ncc(-c4cccc(OC(F)(F)F)c4)n3n2)CC1", "note": "[Compound 3, reference compound]", "values": [{"measurement": "cardiac and pharmacokinetic data evaluation in Phase I trial", "setting": "[3]", "result": "failed to demonstrate a safe therapeutic window"}]}, {"molecule": "CN1CCC(CNc2ccc3nnn(-c4cccc(OC(F)(F)F)c4)c3n2)CC1", "note": "[Compound 8, (1-Methyl-piperidin-4-ylmethyl)-[3-(3-trifluoromethoxy-phenyl)-3H-[1], [2], [3]triazolo[4,5-b]pyridin-5-yl]-amine]", "values": [{"measurement": "IC50", "setting": "hERG", "result": 5400, "unit": "nM"}]}, {"molecule": "Oc1ccc(-c2cnc3ccc(NCc4ccc(F)cc4)nn23)cc1", "note": "[Compound 1]", "values": [{"measurement": "CK1-α1 percentage of inhibition", "setting": "CK1-α1", "result": 33, "unit": "%"}, {"measurement": "FLT3 percentage of inhibition", "setting": "FLT3", "result": "more than 90%"}, {"measurement": "EGF-R percentage of inhibition", "setting": "EGF-R", "result": 33, "unit": "%"}, {"measurement": "IGF1-R percentage of inhibition", "setting": "IGF1-R", "result": 26, "unit": "%"}, {"measurement": "FGF-R1 percentage of inhibition", "setting": "FGF-R1", "result": 84, "unit": "%"}, {"measurement": "IC50", "setting": "PIM-3", "result": 79, "unit": "nM"}, {"measurement": "IC50", "setting": "PIM-2", "result": 420, "unit": "nM"}, {"measurement": "MET percentage of inhibition", "setting": "MET", "result": 32, "unit": "%"}, {"measurement": "JNK1 percentage of inhibition", "setting": "JNK1 [4]", "result": 62, "unit": "%"}, {"measurement": "INS-R percentage of inhibition", "setting": "INS-R [5]", "result": 67, "unit": "%"}, {"measurement": "MST1 percentage of inhibition", "setting": "MST1", "result": 82, "unit": "%"}, {"measurement": "ARK5 percentage of inhibition", "setting": "ARK5", "result": 71, "unit": "%"}, {"measurement": "PAK1 percentage of inhibition", "setting": "PAK1", "result": 7, "unit": "%"}, {"measurement": "B-RAF-V600E percentage of inhibition", "setting": "B-RAF-V600E", "result": 54, "unit": "%"}]}]}
